In brackets after ≈: the same amount, converted by molar mass. Like-named read-outs stand apart in the source and are kept apart here.
Key:
Type in all cases: cell-based
[1] = system: ten randomly selected isolates of T. tonsurans; experiment: Susceptibility of ten T. tonsurans isolates, broth microdilution NCCLS M38-P; details: for MIC: Trichophyton tonsurans
Procedure: (§1) Isolates were tested using the method described in the National Committee for Clinical Laboratory Standards (NCCLS) document M38-P for filamentous fungi, with dermatophyte specific modifications described by Fernández-Torres et al, Current topics in Medical Mycology, 14-19 Feb. 1999.
(§2) Five dermatophyte isolates were, namely; T. rubrum, T. mentagrophytes, T. tonsurans, M. canis and M. gypseum, all of which produce lipases and some, phospholipase. These isolates were tested by the broth microdilution method according to NCCLS document M38-P, for activity against selected antifungal agents. In addition, ten randomly selected isolates of T. tonsurans were also tested. All isolates were maintained on SDA at 28° C. Candida parapsilosis (ATCC 20019) was used as the reference control is organism.
(§3) The microdilution plates used were a single lot of RPMI 1640 basal medium (JRH bioScience Inc. Lenexa, Kans., USA) with L-glutamine and without sodium bicarbonate, buffered to pH 7.0, at 25° C., with 0.165 M (MOPS) morpholinepropanesulfonic acid (Sigma).
(§4) Powdered drugs were dissolved in 100% dimethyl sulfoxide (DMSO), at concentrations 100 times higher than the final test concentration. All compounds were prepared in 100% (DMSO). For ITRA and TRB, two-fold drug dilutions were prepared in 100% DMSO at 100 times the final concentration, followed by further dilution 1:50 in RPMI medium, to yield 2× the final strength required for the test.
(§5) Fungal cultures were subcultured onto Potato Dextrose Agar and grown at 28° C. for 7-10 days. Fungal suspensions were covered with 5 ml of distilled water, and then colonies were scraped off with cotton tipped swabs. The resulting mixture of conidia and hyphae elements was withdrawn, transferred to a sterile tube and then vortexed with glass beads. After the particles settled, the upper homogeneous suspension was collected and its density adjusted by a densitometer to a 0.5 McFarland standard at the wavelength of 530 nm (80-85% transmittance). These stock suspensions were then diluted 1:50 with RPMI medium to obtain final working inoculum concentration ranging from 0.3×10^4 to 9×10^4 CFU/ml. Inoculum quantification was performed by plating 100 μl of the 1:1000 dilution of the adjusted inoculum on SDA plates, incubated at 28° C., and after 7 days of incubation, the colonies were counted.
(§6) Testing was based on NCCLS M38-P document for testing filamentous moulds. Testing was carried out in sterile 96-well flat bottomed microtitre plate. Columns 1 and 3 to 12 were filled with 100 μl of RPMI medium, leaving column 2 unfilled. Columns 1, 2 and 3 were filled with 100 μl of 2× drug concentration. Serial dilutions were then made by transferring 100 μl from column 3 to each column up to column 11, and 100 μl from column 11 was discarded. Column 12 served as drug free growth control. Finally, 100 μl of inoculum suspension was added to all wells except column 1, which acted as sterility control (Columns 1 and 12 served as sterility and growth control respectively). Plates were incubated at 28° C. for 7 days, and read at 3 days and 7 days of incubation. All testing was performed in duplicate, on three separate occasions.
(§7) Growth in microtitre trays were read by visual inspection by using an illuminated-reversed mirror. Growth in each well was compared with the “growth control” drug free well. The MIC end point for all the drugs was chosen to be the first well with 100% growth inhibition (i.e. the lowest drug concentration inhibiting growth).

M. canis = experiment: Susceptibility of dermatophytes, broth microdilution NCCLS M38-P; details: 100% growth inhibition, 28° C.; for MIC: Microsporum canis
Procedure: as §1, §2, §3, §4, §5, §6, §7

T. tonsurans = experiment: as above; details: 100% growth inhibition, 28° C.; for MIC: Trichophyton tonsurans
Procedure: as §1, §2, §3, §4, §5, §6, §7

M. gypseum = experiment: as above; details: 100% growth inhibition, 28° C.; for MIC: Nannizzia gypsea
Procedure: as §1, §2, §3, §4, §5, §6, §7

T. mentagrophytes = experiment: as above; details: 100% growth inhibition, 28° C.; for MIC: Trichophyton mentagrophytes
Procedure: as §1, §2, §3, §4, §5, §6, §7

T. rubrum = experiment: as above; details: 100% growth inhibition, 28° C.; for MIC: Trichophyton rubrum
Procedure: as §1, §2, §3, §4, §5, §6, §7

## CN(C/C=C/C#CC(C)(C)C)Cc1cccc2ccccc12 [Terbinafine]
[1]; T. tonsurans 1
  MIC Range: 0.015 to 0.06 µg/mL
[1]; T. tonsurans 2
  MIC Range: 0.015 to 0.06 µg/mL
[1]; T. tonsurans 4
  MIC Range: 0.015 to 0.06 µg/mL
[1]; T. tonsurans 5
  MIC Range: 0.03 to 0.06 µg/mL
[1]; T. tonsurans 6
  MIC Range: 0.03 to 0.125 µg/mL
[1]; T. tonsurans 7
  MIC Range: 0.015 to 0.06 µg/mL
[1]; T. tonsurans 8
  MIC Range: 0.06 to 0.125 µg/mL
[1]; T. tonsurans 9
  MIC Range: 0.06 to 0.125 µg/mL
[1]; T. tonsurans 10
  MIC Range: 0.015 to 0.06 µg/mL
[1]; T.tonsurans 3
  MIC Range: 0.015 to 0.125 µg/mL
[1]; T. tonsurans 1, read-out: MIC GM
  MIC: 0.034 µg/mL (≈ 0.117 µM)
[1]; T. tonsurans 2, read-out: MIC GM
  MIC: 0.036 µg/mL (≈ 0.124 µM)
[1]; T. tonsurans 2, read-out: MIC Mean
  MIC: 0.041 µg/mL (≈ 0.141 µM)
[1]; T. tonsurans 4, read-out: MIC Mean
  MIC: 0.0275 µg/mL (≈ 0.0944 µM)
[1]; T. tonsurans 5, read-out: MIC GM
  MIC: 0.048 µg/mL (≈ 0.165 µM)
[1]; T. tonsurans 5, read-out: MIC Mean
  MIC: 0.05 µg/mL (≈ 0.172 µM)
[1]; T. tonsurans 6, read-out: MIC GM
  MIC: 0.061 µg/mL (≈ 0.209 µM)
[1]; T. tonsurans 6, read-out: MIC Mean
  MIC: 0.071 µg/mL (≈ 0.244 µM)
[1]; T. tonsurans 7, read-out: MIC GM
  MIC: 0.038 µg/mL (≈ 0.13 µM)
[1]; T. tonsurans 7, read-out: MIC Mean
  MIC: 0.045 µg/mL (≈ 0.154 µM)
[1]; T. tonsurans 8, read-out: MIC GM
  MIC: 0.068 µg/mL (≈ 0.233 µM)
[1]; T. tonsurans 8, read-out: MIC Mean
  MIC: 0.07 µg/mL (≈ 0.24 µM)
[1]; T. tonsurans 9, read-out: MIC GM
  MIC: 0.077 µg/mL (≈ 0.264 µM)
[1]; T. tonsurans 9, read-out: MIC Mean
  MIC: 0.081 µg/mL (≈ 0.278 µM)
[1]; T. tonsurans 10, read-out: MIC Mean
  MIC: 0.035 µg/mL (≈ 0.12 µM)
[1]; T.tonsurans 3, read-out: MIC GM
  MIC: 0.038 µg/mL (≈ 0.13 µM)
[1]; T.tonsurans 3, read-out: MIC Mean
  MIC: 0.051 µg/mL (≈ 0.175 µM)
[1]; read-out: MIC Mean, T. tonsurans 1
  MIC: 0.037 µg/mL (≈ 0.127 µM)
M. canis
  MIC Range, M. canis: 0.03 µg/mL (≈ 0.103 µM)
M. canis; read-out: MIC GM, M. canis
  MIC: 0.03 µg/mL (≈ 0.103 µM)
M. canis; read-out: MIC Mean, M. canis
  MIC: 0.03 µg/mL (≈ 0.103 µM)
T. tonsurans
  MIC Range, T. tonsurans: 0.015 to 0.06 µg/mL
T. tonsurans; read-out: MIC GM, T. tonsurans
  MIC: 0.024 µg/mL (≈ 0.0824 µM)
T. tonsurans; read-out: MIC Mean, T. tonsurans
  MIC: 0.03 µg/mL (≈ 0.103 µM)
M. gypseum
  MIC Range, M. gypseum: 0.015 to 0.25 µg/mL
M. gypseum; read-out: MIC GM, M. gypseum
  MIC: 0.077 µg/mL (≈ 0.264 µM)
M. gypseum; read-out: MIC Mean, M. gypseum
  MIC: 0.122 µg/mL (≈ 0.419 µM)
T. mentagrophytes
  MIC Range, T. mentagrophyte: 0.03 to 0.06 µg/mL
T. mentagrophytes; read-out: MIC GM, T. mentagrophyte
  MIC: 0.034 µg/mL (≈ 0.117 µM)
T. mentagrophytes; read-out: MIC Mean, T. mentagrophyte
  MIC: 0.035 µg/mL (≈ 0.12 µM)
T. rubrum
  MIC Range, T. rubrum: 0.007 to 0.06 µg/mL
T. rubrum; read-out: MIC GM, T. rubrum
  MIC: 0.026 µg/mL (≈ 0.0892 µM)
T. rubrum; read-out: MIC Mean, T. rubrum
  MIC: 0.032 µg/mL (≈ 0.11 µM)
